For experiment [1], the system named is A2780 human ovarian cancer cells. The experiment in a line: In vitro cell proliferation assay, A2780 (CellTiter-Glo). In kind it is cell-based. The settings on record: 72 hours. How it is done: In Vitro Cell Proliferation Assay
A2780 human ovarian and MCF7 human breast cancer cells (1250 cells/well) were seeded in white 384 well-plates in complete medium (RPMI1640 or EMEM plus 10% Fetal bovine serum) and treated with compounds dissolved in 0.1% DMSO, 24 h after seeding. The cells were incubated at 37° C. and 5% CO2 and after 72 hours the plates were processed using CellTiter-Glo assay (Promega) following the manufacturer's instruction.
CellTiter-Glo is a homogenous method based on the quantification of the ATP present, an indicator of metabolitically active cells. ATP is quantified using a system based on luciferase and D-luciferin resulting into light generation. The luminescent signal is proportional to the number of cells present in culture.
Briefly 25 microL/well reagent solution are added to each wells and after 5 minutes shacking microplates are red by a luminometer. The luminescent signal is proportional to the number of cells present in culture.

In experiment [2] the target is T1, PLK-1 (Homo sapiens, UniProt P53350).
T1 construct: His tag (N, cleaved yes); TEV cleavage site (N, cleaved yes); made in house; host or cells: High5 insect cells (baculovirus generated in Sf9)
T1 sequence (P53350 2-345): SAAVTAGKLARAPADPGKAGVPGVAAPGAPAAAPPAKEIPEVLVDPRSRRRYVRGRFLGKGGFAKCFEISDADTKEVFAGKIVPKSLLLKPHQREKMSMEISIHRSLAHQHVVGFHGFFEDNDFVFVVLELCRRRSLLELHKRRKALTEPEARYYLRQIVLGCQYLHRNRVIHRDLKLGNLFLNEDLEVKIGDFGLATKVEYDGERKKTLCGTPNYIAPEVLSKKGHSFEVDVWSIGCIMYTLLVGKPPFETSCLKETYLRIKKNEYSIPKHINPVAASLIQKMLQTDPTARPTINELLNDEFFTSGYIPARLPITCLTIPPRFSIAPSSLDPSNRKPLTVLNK
The experiment in a line: Biochemical assay for inhibitors of PLK-1 kinase activity (33P trans-phosphorylation, Dowex). To be noted: PLK-1 3 nM, 40 microM ATP, 85 microM alpha-casein. An excerpt: Cloning, Expression and Purification of Recombinant PLK1 Kinase Domain.
PLK1 kinase domain (corresponding to residues 2-345 of the full length sequence, see Swiss-Prot accession number P53350) was PCR amplified from the full-length human PLK1 gene purchased from imaGenes as clone IRATp970A078D.
For cloning purposes, the oligonucleotides included attB sites in order to obtain an attB-flanked PCR product suitable for cloning using the Gateway® technology (Invitrogen). Furthermore, for purification purposes, forward primer included a TEV® cleavage site (Amersham Biosciences). The resulting PCR product was cloned in the pDONR221 plasmid and then transferred in the baculovirus expression vector pVL1393 (Invitrogen) Gateway®-modified. For expression and purification purposes, a His tag was added N-terminal to the PLK kinase domain. Cloning was performed according to the protocols described in the Gateway® manual.
Baculoviruses were generated by cotransfecting Sf9 insect cells with the expression vector and the viral DNA using the BaculoGold® transfection kit (Pharmingen). Viral supernatant was recovered after 5 days and subjected to 3 rounds of amplification to increase viral titer. Recombinant protein was produced by infecting High5 insect cells. After 48 hours of infection, cells were recovered, pelletted and freezed at −80° C. For purification of recombinant protein, pellet was thawed, resuspended in lysis buffer (PBS, NaCl 150 mM, CHAPS 0.1%, DTT 20 mM, glycerol 10%, protease inhibitors) and lysed by sonication. Lysate was cleared by centrifugation and loaded on a Nichel affinity column. After extensive wash, recombinant protein was cleaved and eluted by incubation with TEV® protease.
Biochemical Assay for Inhibitors of PLK-1 Kinase Activity
The inhibitory activity of putative kinase inhibitors and the potency of selected compounds were determined using a trans-phosphorylation assay.
Specific peptide or protein substrates are trans-phosphorylated by their specific serine-threonine or tyrosine kinase, in the presence of ATP traced with ^33P-γ-ATP, and in the presence of their own optimal buffer and cofactors.
At the end of the phosphorylation reaction, more than 98% cold ATP and radioactive ATP is captured by an excess of the ion exchange dowex resin; the resin then settles down to the bottom of the reaction plate by gravity.
Supernatant, containing the phosphorylated substrate, is subsequently withdrawn and transferred into a counting plate, then evaluated by β-counting.
Kinase buffer was composed of 50 mM HEPES pH 7.9 containing 10 mM MnCl2, 1 mM DTT, 3 microM NaVO3, and 0.2 mg/mL BSA, 10 mM β-glycerophosphate.
The kinase assay was run with a final enzyme concentration PLK-1 of 3 nM, in presence of 40 microM ATP, 3 nM ^33P-γ-ATP and 85 microM substrate alpha-casein, SIGMA, #C-3240.
1) 3× Enzyme mix (done in Kinase Buffer 3×), 5 microL/well
2) 3× substrate and ATP mix (done in ddH2O), together with ^33P-γ-ATP, 5 microL/well
3) 3× test compounds (diluted into ddH2O—3% DMSO)—5 microL/well
For % inhibition studies, individual dilution plates at 1 mM, 100 microM and 10 microM are prepared in 100% DMSO, then diluted at a 3× concentration (30, 3 and 0.3 microM) in ddH2O, 3% DMSO. A Multimek 96 (Beckman) is used for dilutions and compound pipetting into the test plates
For IC50 determination, compounds are received as 1 mM, 100% DMSO solutions, plated into the first column of a microtiter plate (A1 to G1), 100 microL.
A Biomek 2000 (Beckman) is used for serial 1:3 dilutions in water, 3% DMSO, from column A1 to A10 and for all the seven compounds in the plate. In a standard experiment, the highest concentration of all compounds is 30 microM, then diluted in the final test mixture down to 10 microM. […]

As to `CN1CCN(c2ccc(C(=O)Nc3n[nH]c4c3CN(C(=O)Cc3ccccc3C(F)(F)F)C4(C)C)cc2)CC1` [Compound 44, N-(6,6-dimethyl-5-{[2-(trifluoromethyl)phenyl]acetyl}-1,4,5,6-tetrahydropyrrolo[3,4-c]pyrazol-3-yl)-4-(4-methylpiperazin-1-yl)benzamide], the IC50 in experiment [1] is 380 nM; in experiment [2], 75 nM.

With `CN1CCN(c2ccc(C(=O)Nc3n[nH]c4c3CN(C(=O)Cc3cccs3)C4(C)C)cc2)CC1` [Compound 60, N-[6,6-dimethyl-5-(2-thienylacetyl)-1,4,5,6-tetrahydropyrrolo[3,4-c]pyrazol-3-yl]-4-(4-methylpiperazin-1-yl)benzamide], the concentration for half-maximal inhibition (IC50) in experiment [1] stood at 71 nM; in experiment [2], 52 nM.

Consider `Cc1ccc(C(=O)Nc2n[nH]c3c2CN(C(=O)Nc2c(Cl)cccc2Cl)C3(C)C)cc1` [Compound 64, N-(2,6-dichlorophenyl)-6,6-dimethyl-3-[(4-methylbenzoyl)amino]-4,6-dihydropyrrolo[3,4-c]pyrazole-5(1H)-carboxamide], for which the half-maximal inhibitory concentration (IC50) in experiment [1] stood at 209 nM; in experiment [2], 230 nM.

As to `CCc1ccccc1NC(=O)N1Cc2c(NC(=O)c3ccc(N4CCN(C)CC4)cc3)n[nH]c2C1(C)C` [Compound 178, N-(2-ethylphenyl)-6,6-dimethyl-3-{[4-(4-methylpiperazin-1-yl)benzoyl]amino}-4,6-dihydropyrrolo[3,4-c]pyrazole-5(1H)-carboxamide], the results for the IC50 in experiment [1] and in experiment [2] were 19 nM and 96 nM, respectively.

For the molecule `CC1(C)c2[nH]nc(NC(=O)c3cccc(N)c3)c2CN1C(=O)Nc1c(Cl)cccc1Cl` [Compound 250, 3-[(3-aminobenzoyl)amino]-N-(2,6-dichlorophenyl)-6,6-dimethyl-4,6-dihydropyrrolo[3,4-c]pyrazole-5(1H)-carboxamide], the IC50 in experiment [1] amounted to 119 nM; in experiment [2] it was 30 nM.

As to `CC1(C)c2[nH]nc(NC(=O)c3ccc(N)cc3)c2CN1C(=O)Nc1c(Cl)cccc1Cl` [Compound 251, 3-[(4-aminobenzoyl)amino]-N-(2,6-dichlorophenyl)-6,6-dimethyl-4,6-dihydropyrrolo[3,4-c]pyrazole-5(1H)-carboxamide], the IC50 was 63 nM in experiment [1] and 24 nM in experiment [2].

The values above are taken from patent publication US8227472B2, “Substituted pyrrolo-pyrazole derivatives as kinase inhibitors” (Nerviano Medical Sciences S.R.L., priority 2006, dated 2012).
